# Patent US9675768B2, “Aerosolization device” (Nektar Therapeutics, priority 2008, dated 2017)
# Assay: In-vitro particle size distribution of the aerosol at the mouthpiece
# Type: physicochemical
# Protocol: Percentage of inhaled mass is a measured quantity, and represents the amount of aerosolized medicament which would be inhaled by a patient. Chamber percent is measured and represents the amount remaining in the chamber 22. MMAD is the mass median aerodynamic size of the aerosolized droplets 79, and FPF<5 μm denotes the fine particle fraction under 5 microns, which represents a particle size distribution well suited for delivery to the deep lung. Inhaled mass may be measured by a variety of means, such as by scintigraphy, or by washing the device or component thereof, eluting the drug and directly measuring, e.g. by titration. Inhaled mass measurements are described, for example, in European Standard EN13544-1, which is incorporated by reference herein.
# In this Example an in-vitro delivered dose and particle size distribution (PSD) of the device of FIG. 1 was measured, using a dose of 400 mg of amikacin (125 mg/ml; 3.2 ml). Thus, the in-vitro percentage inhaled mass of amikacin sulfate at the mouthpiece under simulated patient breathing was quantified. Under the following conditions: Tidal Volume (TV) was 500 mL; Respiratory rate (RR) was 15 and an inspiratory to expiratory ratio was 2:3. Three devices were tested. Also, an in-vitro particle size distribution (PSD) at the was determined. Mass balance was determined at the end of the first inhaled mass test run. Breathing parameters of the ventilator were verified pre- and post-inhaled mass test runs. The experimental set up is depicted in FIG. 9.
smiles,measurement,setting,value
"NCC[C@H](O)C(=O)N[C@@H]1C[C@H](N)[C@@H](O[C@H]2O[C@H](CN)[C@@H](O)[C@H](O)[C@H]2O)[C@H](O)[C@H]1O[C@H]1O[C@H](CO)[C@@H](O)[C@H](N)[C@H]1O.O=S(=O)(O)O.O=S(=O)(O)O [amikacin, amikacin sulfate]",Fine Particle fraction of less than 5 microns (FPF<5.0 μm),,about 66%
same,Fine Particle Dose of less than 5 microns (FPD<5.0 μm),400 mg dose,about 240 mg
same,Mass Median Aerodynamic Diameter (MMAD) of the aerosolized particles,three hand-held devices,3.7-3.8 μm
